In patent publication US10544153B2, “Benzoic acid, benzoic acid derivatives and heteroaryl carboxylic acid conjugates of oxycodone, prodrugs, methods of making and use thereof” (KemPharm, Inc., priority 2014, dated 2020):

Experiments:
[1] = Tamper resistance: percent of OC released under tampering conditions, LC-MS/MS; type: physicochemical; details: RT
Protocol: Effective abuse deterrent forms of drugs of abuse can also be resistant to chemical tampering. The prodrugs in the present technology also impart this characteristic. Several common tampering scenarios were employed and percent of OC released were determined by liquid chromatography with tandem mass spectrometry (LC-MS/MS). The results as shown in Table 7 indicated a very high degree of tamper resistance in the example OC prodrugs, releasing little to no OC.

[2] = Oral PK in rats: plasma concentrations of oxymorphone by LC-MS/MS; details: oxymorphone released; for AUC / Cmax / tmax: conjugate equivalent to 2 mg/kg freebase oxycodone; for %-AUC of OC / %-Cmax of OC / %-tmax of OC: relative to oxycodone (OC)
[3] = Oral PK in rats: plasma concentrations of released oxycodone by LC-MS/MS; details: for AUC / Cmax / tmax: conjugate equivalent to 2 mg/kg freebase oxycodone; for %-AUC of OC / %-Cmax of OC / %-tmax of OC: relative to oxycodone (OC)
[4] = Intranasal PK in rats (Table 4); details: title: oxymorphone released (released oxycodone); for Cmax / tmax: equivalent to 2 mg/kg freebase oxycodone; for %-Cmax of OC / %-tmax of OC: relative to oxycodone (OC)
[5] = Intranasal PK in rats: plasma concentrations of released oxymorphone by LC-MS/MS; details: for AUC / Cmax / tmax: Table 6, equivalent to 2 mg/kg freebase oxycodone; for %-AUC of OC / %-Cmax of OC / %-tmax of OC: Table 6, relative to oxycodone (OC)

Structure (SMILES)	percent of OC released ([1]; 1N HCl, 1 hour) [%]	percent of OC released ([1]; 5% Bicarbonate, 1 hour) [%]	percent of OC released ([1]; Water, 1 hour) [%]	percent of OC released ([1]; Water, 24 hours) [%]	AUC [2] [ng·h/mL]	Cmax [2] [ng/mL]	tmax [2] [min]	%-AUC of OC [2] [%]	%-Cmax of OC [2] [%]	%-tmax of OC [2] [%]	AUC [3] [ng·h/mL]	Cmax [3] [ng/mL]	tmax [3] [min]	%-AUC of OC [3] [%]	%-Cmax of OC [3] [%]	%-tmax of OC [3] [%]	other results
COc1ccc2c3c1O[C@H]1C(OC(=O)c4cccc(O)c4)=CC[C@@]4(O)[C@@H](C2)N(C)CC[C@]314 [Conjugate 3-OH-Bz-OC]	<1	0	0	0	–	–	–	–	–	–	–	–	–	–	–	–	–
COc1ccc2c3c1OC1C(OC(=O)C(C)c4cccc(Oc5ccccc5)c4)=CCC4(O)C(C2)N(C)CCC314 (mixture of isomers) [6-Fenoprofen-OC]	–	–	–	–	4.6	3.3	15	67	68	100	21.6	14.0	15	69	87	83	–
COc1ccc2c3c1O[C@H]1C(OC(=O)c4ccccc4)=CC[C@@]4(O)[C@@H](C2)N(C)CC[C@]314 [Bz-OC]	0	0	0	0	–	–	–	–	–	–	–	–	–	–	–	–	–
COc1ccc2c3c1O[C@H]1C(OC(=O)/C=C/c4ccccc4)=CC[C@@]4(O)[C@@H](C2)N(C)CC[C@]314 [6-Cinnamate-OC]	0	<1	0	0	9.2	4.3	21	91	68	40	55.9	35.5	18	60	56	32	Cmax [4]: 497.2 ng/mL; tmax [4]: 4.98 min; %-Cmax of OC [4]: 22%; %-tmax of OC [4]: 100%; AUC [5]: 1.7 ng·h/mL; Cmax [5]: 2.4 ng/mL; tmax [5]: 30 min; %-AUC of OC [5]: 18%; %-Cmax of OC [5]: 18%; %-tmax of OC [5]: 133%
COc1ccc2c3c1OC1C(OC(=O)C(C)c4cccc(C(=O)c5ccccc5)c4)=CCC4(O)C(C2)N(C)CCC314 (mixture of isomers) [6-Ketoprofen-OC]	2	3	0	<1	4.3	3.7	15	62	77	100	25.5	14.7	15	81	91	83	–
COc1ccc2cc(C(C)C(=O)OC3=CCC4(O)C5Cc6ccc(OC)c7c6C4(CCN5C)C3O7)ccc2c1 (stereo not drawn) [Naprox-OC]	<1	0	0	0	–	–	–	–	–	–	–	–	–	–	–	–	–
COc1ccc2c3c1O[C@H]1C(OC(=O)c4ccc(O)cc4)=CC[C@@]4(O)[C@@H](C2)N(C)CC[C@]314 [Conjugate 4-OH-Bz-OC]	0	0	0	0	3.3	2.1	15	55	49	100	53.5	35.4	45	58	69	188	Cmax [4]: 759.2 ng/mL; tmax [4]: 4.98 min; %-Cmax of OC [4]: 41%; %-tmax of OC [4]: 100%; AUC [5]: 11.8 ng·h/mL; Cmax [5]: 19.0 ng/mL; tmax [5]: 27 min; %-AUC of OC [5]: 58%; %-Cmax of OC [5]: 61%; %-tmax of OC [5]: 90%
COc1cc(C(=O)OC2=CC[C@@]3(OC(=O)c4ccc(O)c(OC)c4)[C@H]4Cc5ccc(OC)c6c5[C@@]3(CCN4C)[C@H]2O6)ccc1O [(4-OH-3-MeO-Bz)2-OC]	0	0	0	0	–	–	–	–	–	–	–	–	–	–	–	–	–
COc1ccc2c3c1O[C@H]1C(OC(=O)c4cccc(O)c4)=CC[C@@]4(OC(=O)c5cccc(O)c5)[C@@H](C2)N(C)CC[C@]314 [(3-OH-Bz)2-OC]	0	0	0	0	–	–	–	–	–	–	–	–	–	–	–	–	–
COc1ccc2c3c1O[C@H]1C(OC(=O)c4ccccc4N)=CC[C@@]4(O)[C@@H](C2)N(C)CC[C@]314 [Conjugate 2-ABz-OC]	0	3	<1	<1	–	–	–	–	–	–	–	–	–	–	–	–	–
COc1ccc2c3c1O[C@H]1C(OC(=O)c4ccc(O)cc4)=CC[C@@]4(OC(=O)c5ccc(O)cc5)[C@@H](C2)N(C)CC[C@]314 [(4-OH-Bz)2-OC]	0	0	0	0	–	–	–	–	–	–	–	–	–	–	–	–	–
COc1ccc2c3c1O[C@H]1C(OC(=O)c4ccccc4)=CC[C@@]4(OC(=O)c5ccccc5)[C@@H](C2)N(C)CC[C@]314 [(Bz)2-OC]	0	0	0	0	–	–	–	–	–	–	–	–	–	–	–	–	–
COc1ccc2c3c1O[C@H]1C(OC(=O)c4ccccc4O)=CC[C@@]4(O)[C@@H](C2)N(C)CC[C@]314 [Conjugate 2-OH-Bz-OC]	0	5	0	0	–	–	–	–	–	–	–	–	–	–	–	–	–
COc1ccc(C(=O)OC2=CC[C@@]3(OC(=O)c4ccc(OC)cc4)[C@H]4Cc5ccc(OC)c6c5[C@@]3(CCN4C)[C@H]2O6)cc1 [(4-MeO-Bz)2-OC]	0	0	0	0	–	–	–	–	–	–	–	–	–	–	–	–	–
COc1ccc2c3c1O[C@H]1C(OC(=O)c4cccc(N)c4)=CC[C@@]4(O)[C@@H](C2)N(C)CC[C@]314 [Conjugate 3-ABz-OC]	<1	<1	0	0	3.6	2.0	26.4	69	49	97	52.9	45.5	33	83	96	122	–
COc1ccc2c3c1O[C@H]1C(OC(=O)/C=C/c4ccccc4)=CC[C@@]4(OC(=O)/C=C/c5ccccc5)[C@@H](C2)N(C)CC[C@]314 [(Cin)2-OC]	0	0	0	0	–	–	–	–	–	–	–	–	–	–	–	–	–
COc1cc(C(=O)OC2=CC[C@@]3(O)[C@H]4Cc5ccc(OC)c6c5[C@@]3(CCN4C)[C@H]2O6)ccc1O [4-OH-3-MeO-Bz-OC]	0	0	0	0	–	–	–	–	–	–	–	–	–	–	–	–	–
COc1ccc2c3c1OC1C(OC(=O)C(C)c4ccc(CC(C)C)cc4)=CCC4(O)C(C2)N(C)CCC314 (mixture of isomers) [Conjugate 6-lbu-OC]	2	2	0	0	8.4	3.7	69	83	59	131	77.9	39.5	26.4	83	62	47	Cmax [4]: 131.7 ng/mL; tmax [4]: 4.98 min; %-Cmax of OC [4]: 10%; %-tmax of OC [4]: 100%; AUC [5]: 0.7 ng·h/mL; Cmax [5]: 1.0 ng/mL; tmax [5]: 30 min; %-AUC of OC [5]: 11%; %-Cmax of OC [5]: 11%; %-tmax of OC [5]: 143%
COc1ccc2c3c1O[C@H]1C(OC(=O)c4cccc(N)c4)=CC[C@@]4(OC(=O)c5cccc(N)c5)[C@@H](C2)N(C)CC[C@]314 [(3-ABz)2-OC]	0	0	0	0	–	–	–	–	–	–	–	–	–	–	–	–	–
